49 molecules from patent EP1072673A2, “Perfume compositions” (THE PROCTER & GAMBLE COMPANY, priority 1999, dated 2001) can be followed below.

Assay in one data set: not given
To be noted: pH 3.8.
As for `CCC(=O)OC1CC2CC1C1CC=CC21` (stereo not shown) [Frutene, tricyclo decenyl propionate], the “bleach stability index (BSI)” value was “at least 80%”.
On the same count and under the same terms, then `C=CCOC(=O)COCCCCC` [glycolic acid, 2-pentyloxy:allyl ester], with “at least 80%”.

Another data set is described as follows: Bleach stability index (BSI) test: % AvO loss of perfumed bleach product in accelerated aging, by iodometric titration. As to conditions: perfume ingredient at 0.2% via AE3S in PAP finished product, pH 3.8; 2 weeks at 40°C; BSI of at least 80% = not more than 20% AvO loss.
Method: For this test, the pure perfume chemicals to be tested were diluted at 0.2% via a solubiliser, namely C10-C18 sodium alkyl sulfate condensed with an average of three moles of ethylene oxide (AE3S), then incorporated in a finished product and then subjected to the accelerated aging test. The accelerated aging test is set up as follows: 15 to 20g of each of the finished product incorporating the perfume ingredient was taken and placed in an oven for 2 weeks at 40°C. The aged samples were compared versus freshly made perfumed product (The reference) by measuring the AvO before storage from the reference and after storage from the aged product and expressing the difference in AvO as % loss.
The loss of available oxygen (AvO) of a bleach-containing composition over time can be measured with the iodometric titration method in which the bleach is reduced by excess potassium iodide and the iodine formed is determined by titration with sodium thiosulphate.
For the molecule “2,5,10-Trimethyl-2,5,9-cyclododecatrien-1-yl methyl ketone & isomers [trimofix o]”, the “bleach stability index (BSI)” value was “at least 80%”.
For `CC(C)CCCC1=CCC(C)(C=O)CC1` (stereo not shown) [1-Methyl-4-(4-methylpentyl)-3-cyclohexenecarbaldehyde], the “bleach stability index (BSI)” value is given as “at least 80%”.
Take `C=CC(C)(C#N)Cc1ccccc1` (stereo not shown) [2-Benzyl-2-methyl-3-butenenitril]: the “bleach stability index (BSI)” value is on record as “at least 80%”.
In the case of `CC=CC(=O)C1=C(C)CCCC1(C)C` [2-Buten-1-one, 1-(2,6,6-trimethyl-1-cyclohexen-1-yl)-], the “bleach stability index (BSI)” value is listed as “at least 80%”.
As to `CC(CO)CC(C)c1ccccc1` (stereo not shown) [2-Methyl-4-phenyl-1-pentanol], the “bleach stability index (BSI)” value is reported as “at least 80%”.
For the molecule `CC=CC(=O)OC1CCCC1C1CCCC1` (stereo not shown) [2-cyclopentyl-cyclopentyl 2-butenoate], the “bleach stability index (BSI)” value is “at least 80%”.
As to `CC(C)=CCCC(C)=CC#N` [3,7-dimethyl-2,6-octadienenitrile], the “bleach stability index (BSI)” value was “at least 80%”.
Still for that read-out and setting: then `C=CCCCCCCCC=CCC#N` [3,12-tridecadiene nitrile], with “at least 80%”.
With `OCC=Cc1ccccc1` [3-Phenyl-2-propen-1-ol], the “bleach stability index (BSI)” value is given as “at least 80%”.
On to `CC=C1CC2CC1C1CCCOC21` (stereo not shown) [5,8-Methano-2H-1-benzopyran, 6-ethylideneoctahydro-], for which the “bleach stability index (BSI)” value was “at least 80%”.
`CCCCCCC=CC(=O)OC` [Beauvertate, methyl-2-nonenoate]: the “bleach stability index (BSI)” value is on record as “at least 80%”.
In the case of `CC(C)=CCCC(C)CC=O` (stereo not shown) [Citronellal, 3,7-Dimethyl-6-octen-1-al], the “bleach stability index (BSI)” value was “at least 80%”.
Turning to `C=CC(C)CCCC(C)(C)O` (stereo not shown) [Dihydro myrcenol, 2,6-dimethyl-7-octen-2-ol], the “bleach stability index (BSI)” value is “at least 80%”.
Regarding `CCOC(=O)C1=C(C)C=CCC1(C)C` [Ethyl safranate, ethyl 2,6,6-trimethyl-1,3-cyclohexdiene-1-carboxylate], the “bleach stability index (BSI)” value is “at least 80%”.
On to `CC1=CC(C)C(CO)CC1` (stereo not shown) [Floralol, dimethyl cyclohexene methanol], for which the “bleach stability index (BSI)” value was “at least 80%”.
With `CC=CC(=O)OC(C)CC(C)C` (stereo not shown) [Frutinat.exp, 4-methyl-pentan-2-ol 2-butenoate], the “bleach stability index (BSI)” value was “at least 80%”.
On to `CC=CC(=O)OCCCCCC` [Hexyl crotonate, hexyl 2-butenoate], for which the “bleach stability index (BSI)” value is reported as “at least 80%”.
In the case of `C=CC(C)(O)CCC=C(C)C` (stereo not shown) [Linalool, 3,7-Dimethyl-1,6-octadien-3-ol], the “bleach stability index (BSI)” value is given as “at least 80%”.
For `C=CC(=C)CCCC(C)(C)OC(C)=O` [Myrcenyl acetate crude, 3-methylene-7-methyl-1-octen-7-yl acetate], the “bleach stability index (BSI)” value was “at least 80%”.
With `CC(=O)OCC=C(C)C` [Prenyl acetate, 2-methylbuten-2-ol-4-acetate], the “bleach stability index (BSI)” value is on record as “at least 80%”.
For the molecule `CC1=CCC(CCC(C)C(C)O)C1(C)C` (stereo not shown) [Sandalore, 5-(2,2,3-Trimethyl-3-cyclopentenyl)-3-methylpentan-2-ol], the “bleach stability index (BSI)” value was “at least 80%”.
On to `CCC(=CCC1CC=C(C)C1(C)C)CO` (stereo not shown) [Sanjinol, 2-Ethyl-4-(2,2,3-trimethyl-3-cyclopenten-1-yl)-2-buten-1-ol], for which the “bleach stability index (BSI)” value is “at least 80%”.
Same read-out and setting: then `C=CCOC(=O)COCCC(C)C` [allyl amyl glycolate], with “at least 80%”; and `CC=CC(=O)C1C(C)=CCCC1(C)C` (stereo not drawn) [alpha-damascone, 2-Buten-1-one, 1-(2,6,6-trimethyl-2-cyclohexen-1-yl)-], with “at least 80%”; and `O=C1CCCC=CCCCCCCCCCC1` [ambretone], with “at least 80%”.
The same measure, in the same setting: then `C=CC(O)CCCCC` (stereo not shown) [amyl vinyl carbinol], with “at least 80%”; and `C=C(C=O)C(C)CCC=C(C)C` (stereo not shown) [bergamal], with “at least 80%”; and `CC1=CCC(CC#N)C1(C)C` (stereo not shown) [cantryl], with “at least 80%”.
On to `OC/C=C/c1ccccc1` [cinnamic alcohol], for which the “bleach stability index (BSI)” value was “at least 80%”.
Take `CC(C)=CCCC(C)CCO` (stereo not shown) [citronellol, 3,7-dimethyl-6-octen-1-ol]: the “bleach stability index (BSI)” value is listed as “at least 80%”.
As for `CC(=O)OCCC(C)CCC=C(C)C` (stereo not shown) [citronellyl acetate], the “bleach stability index (BSI)” value is “at least 80%”.
`O=c1ccc2ccccc2o1` [coumarin, 1,2-benzopyrone]: the “bleach stability index (BSI)” value is recorded as “at least 80%”.
For `CCCCCCC(C=O)=Cc1ccccc1` [hexyl cinnamic aldehyde], the “bleach stability index (BSI)” value is on record as “at least 80%”.
In the case of `CC(=O)/C=C/C1C(C)=CCCC1(C)C` (stereo not drawn) [ionone alpha], the “bleach stability index (BSI)” value is “at least 80%”.
`CC(=O)/C=C/C1=C(C)CCCC1(C)C` [ionone beta]: the “bleach stability index (BSI)” value is recorded as “at least 80%”.
`C/C=C(/C)C(=O)OCC(C)C` [isobutyl angelate]: the “bleach stability index (BSI)” value is given as “at least 80%”.
On the same count and under the same terms, then `CC(C)C=CC(=O)CC(C)C` [isotagetone 50, 2,7-Dimethyloct-5-en-4-one], with “at least 80%”.
`COC(=O)c1ccccc1N=CC1CCC(C)=CC1C` (stereo not shown) [ligantraal, Methyl 2-((-1-(2,4-dimethyl-3-cyclohexenyl)methylidene)amino)-1-benzenecarboxylate]: the “bleach stability index (BSI)” value is given as “at least 80%”.
`C=CC(C)(CCC=C(C)C)OC(C)=O` (stereo not shown) [linalyl acetate]: the “bleach stability index (BSI)” value is “at least 80%”.
For the molecule `CC(C)(O)CCCC1=CCC(C=O)CC1` (stereo not shown) [lyral], the “bleach stability index (BSI)” value is listed as “at least 80%”.
Still for that read-out and setting: then `CC1(C)CCCC2=C1CC(C=O)CC2` (stereo not shown) [melafleur], with “at least 80%”; and `CCCC(C)C=Nc1ccccc1C(=O)OC` (stereo not shown) [mevantraal (q), Methyl 2-((-2-methylpentylidene)amino)-1-benzenecarboxylate], with “at least 80%”.
As for `CC(C)=CCOC(=O)c1ccccc1O` [prenyl salicylate], the “bleach stability index (BSI)” value is “at least 80%”.
Regarding `C=CCCCCCCCCO` [rosalva, 9-Decen-1-ol], the “bleach stability index (BSI)” value is recorded as “at least 80%”.
As for `CCC/C=C/C=O` [trans-2-hexenal], the “bleach stability index (BSI)” value is on record as “at least 80%”.
For the molecule `CCC/C=C/CO` [trans-2-hexenol], the “bleach stability index (BSI)” value is reported as “at least 80%”.
Consider `CCC=C(C)C(O)CCCCC` (stereo not shown) [undecavertol, 4-Methyl-3-decen-5-ol], for which the “bleach stability index (BSI)” value is reported as “at least 80%”.
